Experiments:
Rattus norvegicus [1] = species: Rattus norvegicus; settings: in vivo, po, 2 mg/kg
Rattus norvegicus [2] = species: Rattus norvegicus; settings: in vivo, iv, 1 mg/kg
Rattus norvegicus [3] = species: Rattus norvegicus; settings: in vivo, iv, 0.5 mg/kg
in vivo [4] = settings: Sprague-Dawley, rat
in vivo [5] = settings: Sprague-Dawley, rat, po, 2 mg/kg
in vivo [6] = settings: Sprague-Dawley, rat; remark: listed apart in the source

Row | SMILES | AUC/dose (Rattus norvegicus [1]) | clearance (Rattus norvegicus [3]) | half-life (in vivo [4]) | bioavailability (in vivo [5]) | half-life (in vivo [6]) | clearance (Rattus norvegicus [2])
1 | O=C1OCc2cc(CCN3CCN(C(=O)Cc4ccc(-n5cnnn5)cc4)CC3)ccc21 | 0.34 µM·kg·h/mg |  |  |  |  | 40 mL/min/kg
2 | COc1cc(C(O)CN2CCN(CCc3ccc4c(c3C)COC4=O)CC2)ncc1C#N (stereo not drawn) | 0.74 µM·kg·h/mg | 40 mL/min/kg | 1.5 h | 78% |  | 

Second part, led by results:

Row | AUC/dose (Rattus norvegicus [1]) | clearance (Rattus norvegicus [3]) | half-life (in vivo [4]) | bioavailability (in vivo [5]) | half-life (in vivo [6]) | SMILES | clearance (Rattus norvegicus [2])
3 | 0.46 µM·kg·h/mg | 33 mL/min/kg | 0.83 h | 39% |  | COc1cc(CCN2CCN(CC(O)c3ccc4c(c3C)COC4=O)CC2)ccc1C#N (stereo not drawn) | 
4 | 0.35 µM·kg·h/mg | 40 mL/min/kg | 1.3 h | 37% |  | COc1cc(C(O)CN2CCN(CCc3ccc4c(c3C)COC4=O)CC2)ccc1C#N (stereo not drawn) | 
5 | 1.3 µM·kg·h/mg |  |  | 81% | 1.4 h | Cc1nc(C(O)CN2CCN(C[C@H](O)c3ccc4c(c3C)COC4=O)CC2)ccc1C#N (stereo in doubt; 35) | 25 mL/min/kg

— ChEMBL document CHEMBL3612018, “Discovery of a Potent and Selective ROMK Inhibitor with Pharmacokinetic Properties Suitable for Preclinical Evaluation” (ACS Med Chem Lett, 2015)
